# What was measured:
# [1] = tested on: RPMI8226 (multiple myeloma); assay: MTT growth inhibition of multiple myeloma cells, 72 h; type: cell-based, human; conditions: Homo sapiens, RPMI 8226, 72 h; for IC50: read-out: IC50; for IC90: read-out: IC90
# Procedure: Myeloma cell lines: RPMI8226 (multiple myeloma), purchased from Fuxiang Bio-tech Co. Ltd., Shanghai, China.
# (§1) The standard sample of tanshinone I (TA) and the 2-aminated methylene or 2-esterified methylene tanshinone I derivatives of the present invention are sufficiently dissolved with dimethylsulfoxide to produce a stock solution of 10 mg/mL, which is refrigerated at 4° C. and stored in dark, and is diluted with a cell culture medium to the desired concentration prior to experimentation.
# (§2) Obtaining 6000 well-growing myeloma cells as above and inoculating them into wells of a 96-well cell culture plate. The culture medium is the 1640 cell culture medium containing 10% fetal bovine serum. After adding the 2-aminated methylene or 2-esterified methylene tanshinone I derivatives of different concentrations and mixing uniformly, placing the plate in a carbon dioxide cell incubator (5% CO2) at 37° C. and incubated for 72 hours. Then the viable cell concentration is determined by MTT method.
# [2] = tested on: U87 MG (malignant glioma cell); assay: MTT growth inhibition of human solid tumor cells, 72 h; type: cell-based; conditions: Homo sapiens, U-87 MG, U87-MG, 72 h; for IC50: read-out: IC50; for IC90: read-out: IC90
# Procedure: (§3) Hep-2 (laryngeal carcinoma), A549 (human lung cancer), CaES-17 (esophageal cancer cell), PC-3 (prostate cancer), CNE (nasopharyngeal carcinoma cell), and SK-OV-3 (ovarian cancer cell), all of which are purchased from China Center For Type Culture Collection; RKO (human colon adenocarcinoma cell), MGC 803 (human gastric cancer cell), MG63 (osteosarcoma) and U87 MG (malignant glioma cell), all of which are purchased from Fuxiang Bio-tech Co. Ltd., Shanghai, China; PANC-1 (pancreatic cancer), Hep G2 (human liver cancer cell), Becap37 (human breast cancer cell) and Hela (human cervical cancer cell), all of which are donated by Cancer Research Institute of Zhejiang University, China.
# as §1
# (§4) Obtaining 4000 well-growing human solid tumor cells and inoculating them into wells of a 96-well cell culture plate. The culture medium is DMEM High Glucose cell culture medium containing 10% fetal bovine serum. The plate is placed in a carbon dioxide cell incubator (5% CO2) at 37° C. and incubated for 24 hours. After adding the 2-aminated methylene or 2-esterified methylene tanshinone I derivatives of different concentrations and mixing uniformly, the plate is placed in a carbon dioxide cell incubator (5% CO2) at 37° C. and incubated for 72 hours. Then the viable cell concentration is determined by the MTT method.
# [3] = tested on: MGC 803 (human gastric cancer cell); assay: as above; type: cell-based; conditions: Homo sapiens, MGC-803, 72 h; for IC50: read-out: IC50; for IC90: read-out: IC90
# Procedure: as §3, §1, §4
# [4] = tested on: CNE (nasopharyngeal carcinoma cell); assay: as above; type: cell-based; conditions: Homo sapiens; for IC50: read-out: IC50; for IC90: read-out: IC90
# Procedure: as §3, §1, §4
# [5] = tested on: Hep-2 (laryngeal carcinoma); assay: as above; type: cell-based; conditions: Homo sapiens, HEp-2, 72 h; for IC50: read-out: IC50; for IC90: read-out: IC90
# Procedure: as §3, §1, §4
# [6] = tested on: Hep G2 (human liver cancer cell); assay: as above; type: cell-based; conditions: Homo sapiens, HepG2, Hep G2, 72 h; for IC50: read-out: IC50; for IC90: read-out: IC90
# Procedure: as §3, §1, §4
# PC-3 (prostate cancer) = assay: as above; type: cell-based; conditions: Homo sapiens, PC-3, 72 h; for IC50: read-out: IC50; for IC90: read-out: IC90
# Procedure: as §3, §1, §4
# [7] = tested on: CaES-17 (esophageal cancer cell); assay: as above; type: cell-based; conditions: Homo sapiens, CaEs17, CaEs-17, 72 h; for IC50: read-out: IC50; for IC90: read-out: IC90
# Procedure: as §3, §1, §4
# A549 (human lung cancer) = assay: as above; type: cell-based; conditions: Homo sapiens, A549, 72 h; for IC50: read-out: IC50; for IC90: read-out: IC90
# Procedure: as §3, §1, §4
# [8] = tested on: Hela (human cervical cancer cell); assay: as above; type: cell-based; conditions: Homo sapiens, HeLa, 72 h; for IC50: read-out: IC50; for IC90: read-out: IC90
# Procedure: as §3, §1, §4
# [9] = tested on: PANC-1 (pancreatic cancer); assay: as above; type: cell-based; conditions: Homo sapiens, PANC-1, 72 h; for IC50: read-out: IC50; for IC90: read-out: IC90
# Procedure: as §3, §1, §4
# [10] = tested on: Becap37 (human breast cancer cell); assay: as above; type: cell-based; conditions: Homo sapiens, Becap-37, 72 h; for IC50: read-out: IC50; for IC90: read-out: IC90
# Procedure: as §3, §1, §4
# [11] = tested on: RKO (human colon adenocarcinoma cell); assay: as above; type: cell-based; conditions: Homo sapiens; for IC50: read-out: IC50; for IC90: read-out: IC90
# Procedure: as §3, §1, §4
# MG63 (osteosarcoma) = assay: as above; type: cell-based; conditions: Homo sapiens, MG-63, 72 h; for IC50: read-out: IC50; for IC90: read-out: IC90
# Procedure: as §3, §1, §4
# [12] = tested on: SK-OV-3 (ovarian cancer cell); assay: as above; type: cell-based; conditions: Homo sapiens, SK-OV-3, 72 h; for IC50: read-out: IC50; for IC90: read-out: IC90
# Procedure: as §3, §1, §4
# [13] = tested on: H9 (acute lymphoblastic leukemia, ALL); assay: MTT growth inhibition of leukemia cells, 72 h; type: cell-based, human; conditions: Homo sapiens, H9, 72 h; for IC50: read-out: IC50; for IC90: read-out: IC90
# Text: (§5) Leukemia cell lines: leukemia cell lines: K562/adr (drug-resistant, chronic myeloid leukemia, CML), NB4 (acute promyelocytic leukemia, AML), Kasumi-1 (acute myeloid leukemia M2 type, AML-M2), and Jurkat (acute lymphoblastic leukemia, ALL), all of which are donated by Cancer Research Institute of Zhejiang University, China; and H9 (acute lymphoblastic leukemia, ALL), which is purchased from China Center for Type Culture Collection (CCTCC).
# as §1
# as §2, with “leukemia” for “myeloma”, “cells” for “cells as above”, “RPMI-1640” for “1640”, “adding on the second day” for “adding”
# [14] = tested on: Kasumi-1 (acute myeloid leukemia M2 type, AML-M2); assay: MTT growth inhibition of leukemia cells, 72 h; type: cell-based, human; conditions: Homo sapiens, Kasumi-1, 72 h; for IC50: read-out: IC50; for IC90: read-out: IC90
# Text: as §5, §1
# as §2, with “leukemia” for “myeloma”, “cells” for “cells as above”, “RPMI-1640” for “1640”, “adding on the second day” for “adding”
# [15] = tested on: NB4 (acute promyelocytic leukemia, AML); assay: MTT growth inhibition of leukemia cells, 72 h; type: cell-based, human; conditions: Homo sapiens, NB4, 72 h; for IC50: read-out: IC50; for IC90: read-out: IC90
# Text: as §5, §1
# as §2, with “leukemia” for “myeloma”, “cells” for “cells as above”, “RPMI-1640” for “1640”, “adding on the second day” for “adding”
# [16] = tested on: K562/adr (drug-resistant, chronic myeloid leukemia, CML); assay: MTT growth inhibition of leukemia cells, 72 h; type: cell-based, human; conditions: Homo sapiens, K562/Adr; for IC50: read-out: IC50; for IC90: read-out: IC90
# Text: as §5, §1
# as §2, with “leukemia” for “myeloma”, “cells” for “cells as above”, “RPMI-1640” for “1640”, “adding on the second day” for “adding”
# [17] = tested on: Jurkat (acute lymphoblastic leukemia, ALL); assay: MTT growth inhibition of leukemia cells, 72 h; type: cell-based, human; conditions: Homo sapiens, 72 h; for IC50: read-out: IC50; for IC90: read-out: IC90
# Text: as §5, §1
# as §2, with “leukemia” for “myeloma”, “cells” for “cells as above”, “RPMI-1640” for “1640”, “adding on the second day” for “adding”
IC50 [1],IC90 [1],IC50 [2],IC90 [2],IC50 [3],IC90 [3],IC50 [4],IC90 [4],IC50 [5],IC90 [5],IC50 [6],IC90 [6],IC50 (PC-3 (prostate cancer)),IC90 (PC-3 (prostate cancer)),IC50 [7],IC90 [7],IC50 (A549 (human lung cancer)),IC90 (A549 (human lung cancer)),IC50 [8],IC90 [8],Compound,also measured
0.45 µg/mL,1.78 µg/mL,0.86 µg/mL,1.83 µg/mL,0.8 µg/mL,3.87 µg/mL,1.39 µg/mL,2.91 µg/mL,1.28 µg/mL,3.67 µg/mL,1.35 µg/mL,5.26 µg/mL,1.71 µg/mL,8.19 µg/mL,1.09 µg/mL,1.86 µg/mL,1.79 µg/mL,6.05 µg/mL,1.15 µg/mL,3.59 µg/mL,COC(=O)/C=C/C(=O)OCCN(C)Cc1oc2c(c1C)C(=O)C(=O)c1c-2ccc2c(C)cccc12 [BS-TA-74],IC50 [9]: 0.87 µg/mL; IC90 [9]: 11.1 µg/mL; IC50 [10]: 0.85 µg/mL; IC90 [10]: 1.81 µg/mL; IC50 [11]: 0.28 µg/mL; IC90 [11]: 2.88 µg/mL; IC50 (MG63 (osteosarcoma)): 1.02 µg/mL; IC90 (MG63 (osteosarcoma)): 3.26 µg/mL; IC50 [12]: 3.96 µg/mL; IC90 [12]: 7.99 µg/mL; IC50 [13]: 0.25 µg/mL; IC90 [13]: 1.49 µg/mL; IC50 [14]: 0.26 µg/mL; IC90 [14]: 1.57 µg/mL; IC50 [15]: 0.19 µg/mL; IC90 [15]: 0.49 µg/mL; IC50 [16]: 0.8 µg/mL; IC90 [16]: 1.8 µg/mL; IC50 [17]: 0.96 µg/mL; IC90 [17]: 1.86 µg/mL
3.39 µg/mL,7.85 µg/mL,5.71 µg/mL,14.2 µg/mL,5.38 µg/mL,16 µg/mL,4.1 µg/mL,45 µg/mL,3.96 µg/mL,19.1 µg/mL,4.82 µg/mL,16 µg/mL,5.32 µg/mL,12.6 µg/mL,6.36 µg/mL,12.7 µg/mL,6.23 µg/mL,> 16 µg/mL,4.5 µg/mL,14.9 µg/mL,Cc1c(COC(=O)c2ccnc(Cl)c2)oc2c1C(=O)C(=O)c1c-2ccc2c(C)cccc12 [BS-TA-A01],IC50 [9]: 3.31 µg/mL; IC90 [9]: 12 µg/mL; IC50 [10]: 4.74 µg/mL; IC90 [10]: 10.8 µg/mL; IC50 [11]: 1.46 µg/mL; IC90 [11]: 13.4 µg/mL; IC50 (MG63 (osteosarcoma)): 2.87 µg/mL; IC90 (MG63 (osteosarcoma)): 14 µg/mL; IC50 [12]: > 16 µg/mL; IC90 [12]: > 16 µg/mL; IC50 [13]: 3.09 µg/mL; IC90 [13]: 10.4 µg/mL; IC50 [14]: 1.75 µg/mL; IC90 [14]: 3.91 µg/mL; IC50 [15]: 0.99 µg/mL; IC90 [15]: 3.97 µg/mL; IC50 [16]: 2.33 µg/mL; IC90 [16]: 6.24 µg/mL; IC50 [17]: 3 µg/mL; IC90 [17]: 9.27 µg/mL

# Reference: patent US9328083B2, “2-aminated methylene or 2-esterified methylene tanshinone derivatives, and preparation method and application thereof” (HANGZHOU BENSHENG PHARMACEUTICAL CO., LTD., priority 2011, dated 2016)
